In patent publication US20220386582A1, “METHOD AND DEVICE TO TRAP ACARIDS” (DOMOBIOS, priority 2015, published 2022):

Legend:
Assay type in all cases: in vivo
Tyrophagus putrescentiae [1] = assay: Toxicity, direct contact
Experimental: (§1) FIGS. 11A-11D are sets of graphs showing the percentage of dead mites after direct contact with different doses of lavandulol (at a dilution of 10^−6, 0.184 of pure solution or 0.5 μL of pure solution) or water (Ctrl) for different time of exposure. Four species of mites were tested: Dermatophagoides pteronyssinus (FIG. 11A), Dermatophagoides farinae (FIG. 11B), Tyrophagus putrescentiae (FIG. 11C) and Acarus siro (FIG. 11D).
(§2) The species studied were two species of dust common in mattresses in Eurasia (Dermatophagoides pteronyssinus and Dermatophagoides farinae), and two species of stored food mites common in Eurasia (Tyrophagus putrescentiae and Acarus siro). These four species were reared under defined conditions (20° C. and 75% relative humidity). The house dust mites were fed with human flakes (skin and whiskers obtained by cleaning electric shavers) and stored food mites were fed with fish food. The experiments were performed at 20° C. and 40% relative humidity.
(§3) For this experiment, for each of the four species, a group of mites (10<n<25) was placed in a Petri dish in direct contact with the substance to test. To directly contact mites with the substance, a piece of paper filter (5×1 cm) impregnated with lavandulol at various concentration (10 μL of a 10^−6 dilution, 0.18 μL of pure solution and 0.5 μL of pure solution, corresponding respectively to 8.8 ng, 0.15 mg or 0.417 mg of lavandulol), or with a neutral solution, was placed in the Petri dish. The dish was then closed with Parafilm●.
(§4) After a determined time (15 min, 1 hour or 24 hours), the number of dead mites were counted as previously described.

[2] = tested on: Dermatophagoides pteronyssinus; assay: Toxicity, direct contact
Experimental: as §1, §2, §3, §4

Dermatophagoides farinae = assay: Toxicity, direct contact
Experimental: as §1, §2, §3, §4

Acarus siro [3] = assay: Toxicity, direct contact
Experimental: as §1, §2, §3, §4

Tyrophagus putrescentiae [4] = assay: Binary choice test in Petri dish, felt with lavandulol composition versus felt with water
Experimental: (§5) A group of mites (20<n<40) was placed in the center of a Petri dish (diameter 5.5 cm) around which two felt pieces (density of 70 mg/cm^2, thickness of 2 mm) were placed equidistant. The first felt piece was impregnated with water and the other felt piece was impregnated with the lavandulol composition at different dilutions. The diluted lavandulol solutions were prepared from a 90-95% pure lavandulol stock solution (Phytolab, catalog No. 80887). Mites moved spontaneously towards one of the two felt pieces. The number of mites migrating to one side or to the other side was counted and this distribution was compared to a situation where mites were placed in a Petri dish containing two felt pieces impregnated with water. Observations, counting, and identification of mites' species were performed under binocular microscope (magnification 10×). The set-up is illuminated with a cold lamp (KL 1500 LCD, Schott ●), the lighting is symmetric and the light intensity was 50Klux. The experimental conditions were controlled in the room (T° C.: 19-22° C. and RH 40%).

Acarus siro [5] = assay: as above
Experimental: as §5

[6] = 10^−6 dilution (10 μL), 15 min, 1 hour or 24 hours
[7] = pure solutions (0.18 μL and 0.5 μL), after 1 hour
[8] = pure solutions (0.18 μL and 0.5 μL), after 24 hours
[9] = at least at a dilution of 10^−3, even more at least at 10^−6

C=C(C)C(CO)CC=C(C)C (centres unmarked) [Lavandulol, 5-Methyl-2-prop-1-en-2-ylhex-4-en-1-ol]
death of mites by contact (Tyrophagus putrescentiae [1]; [6]): doesn't cause death of mites | death of mites by contact (Tyrophagus putrescentiae [1]; [7]): lead to mites' death | death of mites by contact (Tyrophagus putrescentiae [1]; [8]): all mites being died | death of mites by contact [2, 6]: doesn't cause death of mites | death of mites by contact [2, 7]: lead to mites' death | death of mites by contact [2, 8]: all mites being died | death of mites by contact (Dermatophagoides farinae; [6]): doesn't cause death of mites | death of mites by contact (Dermatophagoides farinae; [7]): lead to mites' death | death of mites by contact (Dermatophagoides farinae; [8]): all mites being died | death of mites by contact (Acarus siro [3]; [6]): doesn't cause death of mites | mites died by contact (Acarus siro [3]; [7]): 97% | Number of mites on the felt piece impregnated with the lavandulol composition (Tyrophagus putrescentiae [4]; Dilution 10^−3): 34% | Number of mites on the felt piece impregnated with the lavandulol composition (Tyrophagus putrescentiae [4]; Dilution 10^−6): 44% | Number of mites on the felt piece impregnated with the lavandulol composition (Tyrophagus putrescentiae [4]; Dilution 10^−7): 48% | Number of mites on the felt piece impregnated with the lavandulol composition (Tyrophagus putrescentiae [4]; Dilution 10^−9): 38% | Number of mites on the felt piece impregnated with the lavandulol composition (Tyrophagus putrescentiae [4]; Dilution 10^−12): 47% | Number of mites on the felt piece impregnated with the lavandulol composition (Tyrophagus putrescentiae [4]; Dilution 10^−13): 49% | Number of mites on the felt piece impregnated with the lavandulol composition (Tyrophagus putrescentiae [4]; Dilution 10^−14): 69% | Number of mites on the felt piece impregnated with the lavandulol composition (Tyrophagus putrescentiae [4]; Dilution 10^−15): 63% | Number of mites on the felt piece impregnated with the lavandulol composition (Tyrophagus putrescentiae [4]; Dilution 10^−16): 60% | Number of mites on the felt piece impregnated with the lavandulol composition (Tyrophagus putrescentiae [4]; Dilution Undiluted): 2% | attraction of mites (in words) (Tyrophagus putrescentiae [4]; [9]): efficiently attracts mites | attraction of mites (in words) (Tyrophagus putrescentiae [4]; undiluted solution): fails to attract mites | Number of mites on the felt piece impregnated with the lavandulol composition (Acarus siro [5]; Dilution 10^−3): 44% | Number of mites on the felt piece impregnated with the lavandulol composition (Acarus siro [5]; Dilution 10^−6): 48% | Number of mites on the felt piece impregnated with the lavandulol composition (Acarus siro [5]; Dilution 10^−9): 40% | Number of mites on the felt piece impregnated with the lavandulol composition (Acarus siro [5]; Dilution 10^−12): 55% | Number of mites on the felt piece impregnated with the lavandulol composition (Acarus siro [5]; Dilution 10^−14): 54% | Number of mites on the felt piece impregnated with the lavandulol composition (Acarus siro [5]; Dilution 10^−16): 50% | Number of mites on the felt piece impregnated with the lavandulol composition (Acarus siro [5]; Dilution Undiluted): 1.1% | attraction of mites (in words) (Acarus siro [5]; [9]): efficiently attracts mites | attraction of mites (in words) (Acarus siro [5]; undiluted solution): fails to attract mites
